{"source": "patent US12458580B2", "about": "“Body ink compositions and applicators” (Inkbox Ink Inc., priority 2015, dated 2025)", "key": {"[1]": {"assay": "solubility limit of genipin in the liquid composition", "type": "physicochemical", "details": "liquid composition: solvent with dissolved genipin; liquid form, solvent water or buffered water", "description": "(§1) In liquid form, the composition consists of at least a solvent and dissolved genipin in an amount in the range of 10 mM to 200 mM (millimolar), with a preference towards the upper end of this range. […] The ultimate upper limit of 200 mM is the amount where the tattoo applicator becomes too stiff and ultimately impractical to use. The solvent may be pure water, or alternatively buffered water. It has been discovered that maintaining an optimal pH of 7.4 produces the highest degree of effectiveness. Use of a buffer allows such a pH to be accurately maintained at the optimal level of 7.4. However, for efficacy pure water may be used instead of buffered water. The pH of water is 7.0, which reasonably approximates the determined optimal pH, and is within a range of pH values which lead to preferred results. In a preferred embodiment, isopropyl alcohol or ethyl alcohol is added to the formulation to provide enhanced drying capabilities and increased genipin solubility."}, "cells": {"system": "cells", "details": "cited from earlier work"}, "human skin": {"system": "human skin", "assay": "staining (inking) of skin", "type": "in vivo", "details": "liquid form, dissolved genipin", "description": "as §1, with “solubility. Generally, the use of water as the solvent is preferred over other possible solvents because certain steps in the inking or staining reaction depend on water as a catalyst. […] Water has a viscosity of 1 centipoise (cP), which is a very low level and one that has been determined to be preferred for the composition of the invention. […]” for “solubility.”"}, "[2]": {"details": "at basic pH; cited from earlier work"}}}
{"compound": "COC(=O)C1=CO[C@@H](O)[C@@H]2C(CO)=CC[C@H]12", "note": "[genipin]", "values": [{"measurement": "solubility", "setting": "[1]", "result": 95, "unit": "mM"}, {"measurement": "cytotoxicity (harmfulness to cells)", "setting": "cells", "result": "low cytotoxicity"}, {"measurement": "minimum concentration required for staining to take effect", "setting": "human skin", "result": 10, "unit": "mM"}, {"measurement": "stability in solution", "setting": "[2]", "result": "unstable and undergoes self-polymerization"}]}
